Values joined by “and” are separate entries in the source; they are usually repeats but may differ in a detail not shown here. Equal values may be shown once. Blank lines part the entries; values can stand above or below the compound they belong to.
How the values were obtained:
[1] = tested on: 17β-HSD; parameters: method as in PMID 11205867; settings: human placental microsomes, compound concentration 10 µM; cited from earlier work
[2] = tested on: LNCaP; parameters: method as in PMID 12706007; settings: human prostate cancer cell line LNCaP; read-out: IC50 growth inhibition LNCaP; cited from earlier work
[3] = molecular target: T1, AKR1C3 (Homo sapiens, UniProt P42330); test: AKR1C3 enzymatic inhibition assay (∆4-androstene-3,17-dione to testosterone); assay type: biochemical; settings: 10 µM compound, ∆4-androstene-3,17-dione reduction, triplicates, mean ± SD
T1 construct: GST (own knowledge: pGEX vectors encode N-terminal GST); made in house; host or cells: E. coli BL21 DE3 Codon Plus RP, lysate
T1 sequence (P42330 1-323): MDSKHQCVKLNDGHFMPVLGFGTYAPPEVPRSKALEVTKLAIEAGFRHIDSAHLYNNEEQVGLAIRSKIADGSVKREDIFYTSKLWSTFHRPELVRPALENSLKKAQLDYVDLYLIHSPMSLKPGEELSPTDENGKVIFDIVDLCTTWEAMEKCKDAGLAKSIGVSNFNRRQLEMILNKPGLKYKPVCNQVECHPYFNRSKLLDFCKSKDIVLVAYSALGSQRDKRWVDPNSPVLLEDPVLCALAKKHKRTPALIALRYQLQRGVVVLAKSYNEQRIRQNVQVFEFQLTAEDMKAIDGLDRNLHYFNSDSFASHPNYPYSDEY
From the text: For enzymatic assays and inhibitor testing, all enzymes were cloned into bacterial or mammalian expression vectors. AKR1C3 and the human hydroxysteroid dehydrogenases HSD17B1, HSD17B2, HSD17B4 (SDR domain), HSD17B7, and HSD17B10 were cloned into a pGEX vector as described in [71, 72]. The coding sequences for AKR1C1, AKR1C2, and AKR1C4 were cloned by Gateway technology into the pcDNA3-N-MycDest vector according to the manufacturer’s instructions (Life Technologies, Carlsbad, CA, USA). The p11 plasmid coding for HSD17B14 (S205 variant) was a gift from Udo Opperman SGC Oxford, UK. For assays with HSD17B3, HEK293 cells stably expressing HSD17B3 were used. Enzymes were expressed in E. coli BL21 DE3 or E. coli BL21 DE3 Codon Plus RP (Stratagene, San Diego, CA, USA) or in HEK293 cells as described in [71, 72, 73]. Bacterial and cell pellets were stored at −20 °C and −80 °C, respectively, until use.
Inhibition assays were carried out as described in [71, 74]. […] For a detailed assay setup, see Supplementary Table S6. The incubation at 37 °C was stopped with 0.21 M ascorbic acid in methanol:acetic acid 99:1 (v:v) after the time needed to convert approximately 30% of the substrate in a control assay with 1% DMSO, without inhibitor candidate. Substrates and products were extracted from the reaction mixture by solid-phase extraction using C18 cartridges (Phenomenex, Aschaffenburg, Germany) and separated by RP–HPLC in a Beckman–Coulter HPLC Gold system, using the Luna 5 µm C18(2), 125 × 4.0 mm column (Phenomenex). The mobile phases used were H2O:ACN (57:43 (v:v); for assays of estrone (E1) to oestradiol (E2), E2 to E1, and ∆4-androstene-3,17-dione to testosterone conversion), H2O:ACN (49:51 (v:v); for assays of progesterone to 20α-hydroxyprogesterone conversion), and H2O:MeOH (35:65 (v:v) for assays of dihydrotestosterone (DHT) to 3α-androstanediol conversion) at a flow rate of 1 mL/min. Radioactivity was detected by online scintillation counting by using a radioactivity monitor (LB506D, Berthold Technologies, Bad Wildbad, Germany). Conversion of substrates to products was determined by integration of the peak area of the substrate and product peaks in percent. For calculation of inhibition, the conversion of control assay (assay without inhibitor) was set to 0% inhibition. All assays were run in triplicates, and mean values ± SD are reported.
For the determination of IC50 values, percent inhibition values were fitted using the Enzyme Kinetics module of SigmaPlot 13.0 and the one-site ligand-binding model according to the formula f = Bmax * abs(x)/(Kd + abs(x)).
Table S6: Activity assay setup […]
E1: estrone; E2: 17β-estradiol, A: Δ4-androstene-3,17-dione; T: testosterone, P: progesterone, 20αOHP: 20α-hydroxyprogesterone, DHT: dihydrotestosterone, 3α-Adiol: 3α-androstanediol, NaPi: 100 mM Na-phosphate buffer; PI: C0mplete protease inhibitor (Roche);. E.coli - Expression in E.coli BL21 DE3 Codon Plus RP except E.coli BL21 DE3 […]
application to antiparasitic and natural product synthesis. Eur J Org Chem […]
Synthesis of Xanthohumol analogues and discovery of potent thioredoxin reductase inhibitor as potential anticancer agent. J Med Chem 2015, 58,

[4] = tested on: DU145; parameters: method as in PMID 12706007; settings: human prostate cancer cell line DU145; read-out: IC50 growth inhibition DU145; cited from earlier work
[5] = molecular target: aromatase; parameters: method as in PMID 11205867; settings: human placental microsomes; cited from earlier work
[6] = tested on: AKR1C3; settings: co-crystallised ligand of PDB 3UWE; cited from earlier work

SMILES: COc1cc(O)cc(O)c1C(=O)/C=C/c1ccc(O)cc1 [Compound 24]
AKR1C3 Inhibition at 10 µM [%] [3]: 24.6 ± 4.8%

SMILES: O=C(/C=C/c1ccc(O)c(O)c1)c1ccc(O)cc1O [Butein (17), butein, reference compound]
inhibition at 10 µM [3]: 37.2 ± 1.4%

SMILES: O=C(/C=C/c1ccc(Cl)cc1)c1c(O)cc(O)cc1O [Compound 22]
AKR1C3 Inhibition at 10 µM [%] [3]: 70.8 ± 3.8%

SMILES: O=C(/C=C/c1ccc(F)cc1)c1c(O)cc(O)cc1O [Compound 26]
AKR1C3 Inhibition at 10 µM [%] [3]: 68.5 ± 6.4%

SMILES: O=C(/C=C/c1ccc(O)cc1)c1c(O)cc(O)cc1O [Compound 29, naringenin chalcone]
17β-HSD inhibition [1]: 2.4%
IC50 [5]: 2.6 µM
AKR1C3 Inhibition at 10 µM [%] [3]: 40.6 ± 7.7%

SMILES: O=C(O)c1cccc(Oc2ccccc2)c1 [3-phenoxybenzoic acid]
IC50 [6]: 0.68 µM

More lines, main results first:

inhibition at 10 µM [3]: 31.1 ± 3.2%
SMILES: O=C(/C=C/c1ccc(O)cc1)c1ccc(O)cc1O [Isoliquiritigenin (16), isoliquiritigenin, reference compound]
17β-HSD inhibition [1]: 10%
IC50 [2]: 13 µM
IC50 [4]: 11 µM

AKR1C3 Inhibition at 10 µM [%] ([3]; 10 µM): 26.1% and 20.3 ± 8.4%
SMILES: COc1cc(O)cc(O)c1C(=O)/C=C/c1ccc(F)cc1 [Compound 27]

AKR1C3 Inhibition at 10 µM [%] ([3]; 10 µM): 20.3% and 26.1 ± 2.0%
SMILES: COc1cc(O)cc(O)c1C(=O)/C=C/c1ccc(Cl)cc1 [Compound 28]
